Source: publication PMC9568543, “Bee-safe peptidomimetic acaricides achieved by comparative genomics” (Scientific Reports, 2022)
Where “and” joins values, the source holds several entries; their conditions need not be identical. Equal entries are not always repeated. Where a SMILES comes first, the peptide text is derived from it. Where no end group is shown, it is not given here. [ ]: non-standard residue; d: D form. Phe(4-NO2) = N[C@@H](Cc1ccc([N+](=O)[O-])cc1)C(=O)O; Oic = O=C(O)[C@@H]1C[C@@H]2CCCC[C@@H]2N1; Phe(4-Cl) = N[C@@H](Cc1ccc(Cl)cc1)C(=O)O; Phe(4-F) = N[C@@H](Cc1ccc(F)cc1)C(=O)O; Hyp = O=C(O)[C@@H]1C[C@@H](O)CN1; β3hF = N[C@H](CC(=O)O)Cc1ccccc1; β3hL = CC(C)C[C@H](N)CC(=O)O; β3hP = O=C(O)C[C@@H]1CCCN1

Columns and labels:
[1] = target: T1, Varroa mite proctolin receptor (VdProctR) (Varroa destructor, UniProt A0A7T1TE40); test: Receptor activity assay, CHO cell line stably expressing the receptor, second set of ligands; type: cell-based; conditions: for Fold change: EC50 relative to proctolin, second set (stable expression)
T1 sequence (A0A7T1TE40 entry or part of it): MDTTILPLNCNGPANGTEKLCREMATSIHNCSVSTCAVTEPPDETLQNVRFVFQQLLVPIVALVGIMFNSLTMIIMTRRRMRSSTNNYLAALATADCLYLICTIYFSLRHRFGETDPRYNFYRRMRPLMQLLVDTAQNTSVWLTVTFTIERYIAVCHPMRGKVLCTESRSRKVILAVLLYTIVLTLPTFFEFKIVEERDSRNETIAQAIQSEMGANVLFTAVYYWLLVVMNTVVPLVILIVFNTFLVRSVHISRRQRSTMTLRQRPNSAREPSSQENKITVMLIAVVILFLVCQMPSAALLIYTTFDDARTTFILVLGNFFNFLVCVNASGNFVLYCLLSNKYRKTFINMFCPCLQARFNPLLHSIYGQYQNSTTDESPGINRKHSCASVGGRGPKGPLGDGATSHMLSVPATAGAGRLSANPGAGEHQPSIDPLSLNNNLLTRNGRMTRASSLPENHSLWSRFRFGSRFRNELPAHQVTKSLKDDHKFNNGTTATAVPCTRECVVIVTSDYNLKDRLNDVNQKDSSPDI
Procedure: (§1) Approximately thirty hours after transfection, the cells were collected and preincubated with coelenterazine h for the functional assay, as previously described[30],[31],[52]. The ligands in serial dilutions were loaded into 96-well opaque plates. Cells treated with coelenterazine h were injected into each well on an Orion microplate luminometer (Berthold) luminescent plate reader. The luminescence was measured for 20 s immediately after the cell injections. Data analyses were performed to determine the accumulated luminescence value for 20 s after extraction of blank-well luminescence. […] The three biological replications were regressed for the dose–response curves with 95% confidence intervals (Table 1). For the tests of the second set of ligands, we used the cell line that stably expressed VdProctR, which were selected by Zeocin for 5 passages.

worker honey bee = test: Acute toxicity on worker honey bee by injection, 24 h; conditions: 50 nL of 200 µM (10 pmol), 24 h observation, n = 4
Procedure: For honey bee (Apis mellifera) assays, honey bee workers from healthy colonies were collected from Honeybee Valley of Ghent University, Belgium, and maintained in cages on sugar dough and water, under standardized conditions of 28–30 °C, 60–65% air humidity and continuous darkness. The colony were maintained with a periodic sanitary control that the honeybee hives are free of pathogens, diseases and viruses. There was no Varroa mite infection in the honeybee hives at the moment of collecting the workers for the assays. […] This was realized by injecting a volume of 50 nL of a concentration of the compound of 200 µM. Potential effects on survival were scored at 24 h after injection. […] This test was done with the following compounds were tested: 2439, 2334, 2336, Ac-2442 and controls. Subsequently, working solutions were freshly prepared prior to the bioassays by diluting the stock with distilled water to the required concentration.

[2] = target: T1, Varroa mite proctolin receptor (VdProctR); test: Receptor activity assay (aequorin luminescence), CHO cells transiently expressing the receptor, first set of ligands; type: cell-based; conditions: for Fold change: EC50 relative to proctolin, first set (transient expression); for efficacy (maximal response) compared with proctolin: activities at 1 μM and 10 μM; for EC50: cells with transient expression of the receptor; for potency of double-replacement analog over the corresponding single Y2 replacement analog (factor): 2338 vs 2333, 2337 vs 2329
Procedure: as §1

[3] = tested on: proctolin myotropic assays in cockroach, locust and beetle species; conditions: cited from earlier work

CC(=O)N[C@@H](CCCNC(=N)N)C(=O)N[C@@H](Cc1ccc(F)cc1)C(=O)N[C@@H](CC(C)C)C(=O)N1C[C@H](O)C[C@H]1C(=O)N[C@H](C(=O)O)[C@@H](C)O [Ac-2441, Ac-R[Phe(4-F)]L[HyP]T] (Ac-R[Phe(4-F)]L[Hyp]T-OH; N-terminus and C-terminus assumed)
Fold change [1]: 61.5

CC(=O)N[C@@H](CCCNC(=N)N)C(=O)N[C@@H](Cc1ccc([N+](=O)[O-])cc1)C(=O)N[C@@H](CC(C)C)C(=O)N1C[C@H](O)C[C@H]1C(=O)N[C@H](C(=O)O)[C@@H](C)O [Ac-2442, Ac-R[Phe(4-NO2)]L[HyP]T] (Ac-R[Phe(4-NO2)]L[Hyp]T-OH)
negative effects after injection into thorax (worker honey bee): did not show any negative effects

CC(=O)N[C@@H](CCCNC(=N)N)C(=O)N[C@@H](Cc1ccc(Cl)cc1)C(=O)N[C@@H](CC(C)C)C(=O)N1C[C@H](O)C[C@H]1C(=O)N[C@H](C(=O)O)[C@@H](C)O [Ac-2443, Ac-R[Phe(4-Cl)]L[HyP]T] (Ac-R[Phe(4-Cl)]L[Hyp]T-OH)
Fold change [1]: 37.5

CC(C)C[C@H](NC(=O)[C@H](Cc1ccc(O)cc1)NC(=O)[C@@H](N)CCCNC(=N)N)C(=O)N1CCC[C@H]1C(=O)N[C@@H](C(=O)O)[C@H](C)O [Analog 2326, RYLP[dT]] (H-RYLP[dT]-OH; N-terminus and C-terminus assumed)
Fold change [2]: 7654.8

CC(C)C[C@H](NC(=O)[C@H](Cc1ccc(O)cc1)NC(=O)[C@@H](N)CCCNC(=N)N)C(=O)N1CCC[C@@H]1C(=O)N[C@H](C(=O)O)[C@@H](C)O [Analog 2327, RYL[dP]T] (H-RYL[dP]T-OH; N-terminus and C-terminus assumed)
Fold change [2]: 1881.1

CC(C)C[C@@H](NC(=O)[C@H](Cc1ccc(O)cc1)NC(=O)[C@@H](N)CCCNC(=N)N)C(=O)N1CCC[C@H]1C(=O)N[C@H](C(=O)O)[C@@H](C)O [Analog 2328, RY[dL]PT] (H-RY[dL]PT-OH; N-terminus and C-terminus assumed)
Fold change [2]: 558.8

CC(C)C[C@H](NC(=O)[C@@H](Cc1ccc(O)cc1)NC(=O)[C@@H](N)CCCNC(=N)N)C(=O)N1CCC[C@H]1C(=O)N[C@H](C(=O)O)[C@@H](C)O [Analog 2329, R[dY]LPT] (H-R[dY]LPT-OH; N-terminus and C-terminus assumed)
Fold change [2]: 824.5

CC(C)C[C@H](NC(=O)[C@H](Cc1ccc(O)cc1)NC(=O)[C@H](N)CCCNC(=N)N)C(=O)N1CCC[C@H]1C(=O)N[C@H](C(=O)O)[C@@H](C)O [Analog 2330, [dR]YLPT] (H-[dR]YLPT-OH; N-terminus and C-terminus assumed)
efficacy (maximal response) compared with proctolin [2]: higher than that of proctolin | EC50 ([2]; first set of peptidomimetics, listed as R1 replacement by dR, read-out: EC50): 5.62 nM | activity in earlier in vivo myotropic bioassays [3]: no activity

CC(C)C[C@@H](CC(=O)N1CCC[C@H]1C(=O)N[C@H](C(=O)O)[C@@H](C)O)NC(=O)[C@H](Cc1ccc(O)cc1)NC(=O)[C@@H](N)CCCNC(=N)N [Analog 2332, RY[β3L]PT] (H-RY[β3hL]PT-OH)
Fold change [2]: 661.7

CC(C)C[C@H](NC(=O)C[C@H](Cc1ccccc1)NC(=O)[C@@H](N)CCCNC(=N)N)C(=O)N1CCC[C@H]1C(=O)N[C@H](C(=O)O)[C@@H](C)O [Analog 2333, R[β3F]LPT] (H-R[β3hF]LPT-OH)
Fold change [2]: 572.0

CC(C)C[C@H](NC(=O)[C@@H](Cc1ccc(O)cc1)NC(=O)[C@@H](N)CCCNC(=N)N)C(=O)N1C[C@H](O)C[C@H]1C(=O)N[C@H](C(=O)O)[C@@H](C)O [Analog 2337, R[dY]L[HyP]T] (H-R[dY]L[Hyp]T-OH; N-terminus and C-terminus assumed)
efficacy (maximal response) [2]: full efficacy | potency of double-replacement analog over the corresponding single Y2 replacement analog (factor) [2]: 4 | Fold change [2]: 143.5

CC(C)C[C@H](NC(=O)C[C@H](Cc1ccccc1)NC(=O)[C@@H](N)CCCNC(=N)N)C(=O)N1C[C@H](O)C[C@H]1C(=O)N[C@H](C(=O)O)[C@@H](C)O [Analog 2338, R[β3F]L[HyP]T] (H-R[β3hF]L[Hyp]T-OH)
efficacy (maximal response) [2]: full efficacy | potency of double-replacement analog over the corresponding single Y2 replacement analog (factor) [2]: 8 | EC50 ([2]; EC50, first set of peptidomimetics): 33 nM and 33.2 nM | Fold change [2]: 136.1

CC(C)C[C@H](NC(=O)[C@@H](Cc1ccc(O)cc1)NC(=O)[C@@H](N)CCCNC(=N)N)C(=O)N1[C@H](C(=O)N[C@H](C(=O)O)[C@@H](C)O)C[C@@H]2CCCC[C@@H]21 [Analog 2340, R[dY]L[Oic]T] (H-R[dY]L[Oic]T-OH)
Fold change [2]: 529.7

CC(C)C[C@H](NC(=O)[C@H](Cc1ccc(F)cc1)NC(=O)[C@@H](N)CCCNC(=N)N)C(=O)N1CCC[C@H]1C(=O)N[C@H](C(=O)O)[C@@H](C)O [Analog 2438, R[Phe(4-F)]LPT] (H-R[Phe(4-F)]LPT-OH)
EC50 [1]: 16.7 nM | Fold change [1]: 0.7

CC(C)C[C@H](NC(=O)[C@H](Cc1ccc([N+](=O)[O-])cc1)NC(=O)[C@@H](N)CCCNC(=N)N)C(=O)N1CCC[C@H]1C(=O)N[C@H](C(=O)O)[C@@H](C)O [Analog 2439, R[Phe(4-NO2)]LPT] (H-R[Phe(4-NO2)]LPT-OH)
negative effects after injection into thorax (worker honey bee): did not show any negative effects

CC(C)C[C@H](NC(=O)[C@H](Cc1ccc(Cl)cc1)NC(=O)[C@@H](N)CCCNC(=N)N)C(=O)N1CCC[C@H]1C(=O)N[C@H](C(=O)O)[C@@H](C)O [Analog 2440, R[Phe(4-Cl)]LPT] (H-R[Phe(4-Cl)]LPT-OH)
EC50 [1]: 5.73 nM | Fold change [1]: 0.2

CC(C)C[C@H](NC(=O)[C@H](Cc1ccc(F)cc1)NC(=O)[C@@H](N)CCCNC(=N)N)C(=O)N1C[C@H](O)C[C@H]1C(=O)N[C@H](C(=O)O)[C@@H](C)O [Analog 2441, R[Phe(4-F)]L[HyP]T] (H-R[Phe(4-F)]L[Hyp]T-OH; N-terminus and C-terminus assumed)
Fold change [1]: 0.7 | activity compared with proctolin ([1]; second set, stable expression): higher activity than proctolin

GRYLPT [Analog G1, GRYLPT]
Fold change [2]: 199.7

RGYLPT [Analog G2, RGYLPT]
Fold change [2]: 71648.2

RYGLPT [Analog G3, RYGLPT]
Fold change [2]: 91508.8

RYLGPT [Analog G4, RYLGPT]
Fold change [2]: 5444.9

RYLPGT [Analog G5, RYLPGT]
Fold change [2]: 3095.5

RYLPTG [Analog G6, RYLPTG]
Fold change [2]: 4088.2 | efficacy (maximal response) compared with proctolin [2]: higher than that of proctolin

RYL[HyP]T [Analog 2334] (H-RYL[Hyp]T-OH; N-terminus and C-terminus assumed; SMILES CC(C)C[C@H](NC(=O)[C@H](Cc1ccc(O)cc1)NC(=O)[C@@H](N)CCCNC(=N)N)C(=O)N1C[C@H](O)C[C@H]1C(=O)N[C@H](C(=O)O)[C@@H](C)O)
efficacy (maximal response) compared with proctolin [2]: higher than that of proctolin

RYL[β3P]T [Analog 2331] (H-RYL[β3hP]T-OH; N-terminus and C-terminus assumed; SMILES CC(C)C[C@H](NC(=O)[C@H](Cc1ccc(O)cc1)NC(=O)[C@@H](N)CCCNC(=N)N)C(=O)N1CCC[C@H]1CC(=O)N[C@H](C(=O)O)[C@@H](C)O)
efficacy (maximal response) compared with proctolin [2]: higher than that of proctolin
